Values quoted from earlier work as cited in patent US20090246264A1, “Transdermal Tobacco Alkaloid Patch” (Fertin Pharma, priority 2005, published 2009).

Details: pure nicotine placed on the skin of an ordinary human being

For `CN1CCCC1c1cccnc1` (stereo not shown) [nicotine], the lethal dose is given as 50 mg.
